In ChEMBL document CHEMBL4340533, “Discovery of an EGFR tyrosine kinase inhibitor from Ilex latifolia in breast cancer therapy” (Bioorg Med Chem Lett, 2019):
The source made the active and inactive calls. The calls are words filed in the database; no cut-off is given here.

Columns and labels:
[1] = test system: MDA-MB-231; assay: Induction of apoptosis in human MDA-MB-231 cells assessed as increase in cleaved caspase 3 expression at 20 to 80 ug/ml by Western blot analysis; format: functional, cell-based
[2] = test system: MDA-MB-231; assay: Antiproliferative activity against human MDA-MB-231 cells assessed as reduction in cell viability after 24 hrs by MTT assay; format: functional, cell-based
[3] = test system: MDA-MB-231; assay: Induction of apoptosis in human MDA-MB-231 cells assessed as early apoptotic cells at 80 ug/ml after 24 hrs by Annexin-V-FITC/propidium iodide staining based FACS analysis relative to control; format: functional
[4] = test system: MDA-MB-231; assay: Induction of apoptosis in human MDA-MB-231 cells assessed as increase in late apoptotic cells at 20 to 40 ug/ml after 24 hrs by Annexin-V-FITC/propidium iodide staining based FACS analysis; format: functional, cell-based
[5] = test system: MDA-MB-231; assay: Induction of apoptosis in human MDA-MB-231 cells assessed as down regulation of PARP1 expression by Western blot analysis; format: functional, cell-based
[6] = target: Epidermal growth factor receptor (Homo sapiens) (UniProt P00533); assay: Inhibition of EGFR phosphorylation in human MDA-MB-231 cells by Western blot analysis; format: cell-based
Chain of Epidermal growth factor receptor (Homo sapiens) (P00533 whole entry): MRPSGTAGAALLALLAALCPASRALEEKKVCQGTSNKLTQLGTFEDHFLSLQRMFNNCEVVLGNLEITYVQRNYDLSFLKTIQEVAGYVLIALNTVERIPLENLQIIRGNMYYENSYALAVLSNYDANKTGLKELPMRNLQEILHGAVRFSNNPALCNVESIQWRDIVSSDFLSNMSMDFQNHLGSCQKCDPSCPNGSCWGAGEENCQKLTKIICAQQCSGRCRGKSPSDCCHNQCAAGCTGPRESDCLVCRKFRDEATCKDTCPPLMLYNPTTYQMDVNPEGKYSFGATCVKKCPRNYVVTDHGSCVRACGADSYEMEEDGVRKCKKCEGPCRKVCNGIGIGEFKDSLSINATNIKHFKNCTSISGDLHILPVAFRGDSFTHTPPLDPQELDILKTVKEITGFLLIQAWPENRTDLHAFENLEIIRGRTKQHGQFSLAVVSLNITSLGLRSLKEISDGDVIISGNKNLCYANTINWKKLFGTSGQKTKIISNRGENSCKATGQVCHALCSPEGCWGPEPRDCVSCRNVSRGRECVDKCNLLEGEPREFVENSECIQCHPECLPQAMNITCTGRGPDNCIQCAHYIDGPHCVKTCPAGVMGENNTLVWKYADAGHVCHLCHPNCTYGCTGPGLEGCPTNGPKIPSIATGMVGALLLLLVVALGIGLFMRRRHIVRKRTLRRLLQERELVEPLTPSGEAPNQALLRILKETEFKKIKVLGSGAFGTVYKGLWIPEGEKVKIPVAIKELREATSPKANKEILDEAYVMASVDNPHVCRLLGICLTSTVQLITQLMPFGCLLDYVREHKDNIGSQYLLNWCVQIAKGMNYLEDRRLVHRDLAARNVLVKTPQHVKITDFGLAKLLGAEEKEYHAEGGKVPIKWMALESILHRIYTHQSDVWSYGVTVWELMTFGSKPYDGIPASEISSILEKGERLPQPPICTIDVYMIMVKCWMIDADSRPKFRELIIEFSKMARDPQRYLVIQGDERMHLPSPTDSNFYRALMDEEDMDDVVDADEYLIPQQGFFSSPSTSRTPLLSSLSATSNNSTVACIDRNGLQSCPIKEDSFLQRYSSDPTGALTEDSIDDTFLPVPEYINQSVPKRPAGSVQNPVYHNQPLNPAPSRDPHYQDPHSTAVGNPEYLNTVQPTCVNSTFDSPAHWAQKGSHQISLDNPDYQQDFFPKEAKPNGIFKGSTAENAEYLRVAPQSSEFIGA

[7] = test system: Epidermal growth factor receptor (Homo sapiens), P00533 [L858R]; assay: Inhibition of EGFR L858R mutant (unknown origin) using polyE4Y1 as substrate measured after 60 mins
Chain of Epidermal growth factor receptor (Homo sapiens), P00533 [L858R] (P00533 whole entry L858R): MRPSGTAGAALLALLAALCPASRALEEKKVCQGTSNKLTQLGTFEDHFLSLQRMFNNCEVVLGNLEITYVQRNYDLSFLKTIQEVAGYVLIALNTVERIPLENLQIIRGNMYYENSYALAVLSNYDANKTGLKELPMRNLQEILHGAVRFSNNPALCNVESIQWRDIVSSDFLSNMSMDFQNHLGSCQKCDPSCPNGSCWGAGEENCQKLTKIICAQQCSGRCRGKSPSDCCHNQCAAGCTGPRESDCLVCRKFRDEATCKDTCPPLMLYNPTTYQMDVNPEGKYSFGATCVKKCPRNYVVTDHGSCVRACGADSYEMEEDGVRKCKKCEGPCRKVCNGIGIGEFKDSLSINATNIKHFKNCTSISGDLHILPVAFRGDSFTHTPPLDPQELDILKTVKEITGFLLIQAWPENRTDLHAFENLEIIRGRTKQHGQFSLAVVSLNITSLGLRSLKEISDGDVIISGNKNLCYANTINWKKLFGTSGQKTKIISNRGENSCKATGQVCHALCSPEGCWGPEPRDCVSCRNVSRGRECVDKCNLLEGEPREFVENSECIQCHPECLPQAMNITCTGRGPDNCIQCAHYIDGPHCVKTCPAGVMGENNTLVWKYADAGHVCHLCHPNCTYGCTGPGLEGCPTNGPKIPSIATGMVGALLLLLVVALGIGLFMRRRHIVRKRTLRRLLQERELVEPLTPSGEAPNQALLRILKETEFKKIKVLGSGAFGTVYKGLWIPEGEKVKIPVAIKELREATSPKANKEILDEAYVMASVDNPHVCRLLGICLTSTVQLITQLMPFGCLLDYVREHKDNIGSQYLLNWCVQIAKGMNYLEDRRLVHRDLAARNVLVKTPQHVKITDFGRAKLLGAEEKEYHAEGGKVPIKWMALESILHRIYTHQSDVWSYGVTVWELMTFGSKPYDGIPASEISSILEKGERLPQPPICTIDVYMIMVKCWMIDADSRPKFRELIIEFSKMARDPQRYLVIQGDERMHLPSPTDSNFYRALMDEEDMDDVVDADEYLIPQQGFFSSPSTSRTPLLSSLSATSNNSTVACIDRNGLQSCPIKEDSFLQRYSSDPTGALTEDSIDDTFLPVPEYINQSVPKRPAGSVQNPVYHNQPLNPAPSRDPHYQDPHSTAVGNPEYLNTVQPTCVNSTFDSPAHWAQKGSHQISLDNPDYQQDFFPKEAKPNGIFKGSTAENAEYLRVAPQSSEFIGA

[8] = test system: MDA-MB-231; assay: Induction of apoptosis in human MDA-MB-231 cells assessed as increase in apoptotic cells after 24 hrs in presence of lapatinib by Annexin-V-FITC/propidium iodide staining based FACS analysis; format: functional, cell-based
[9] = test system: MDA-MB-231; assay: Induction of apoptosis in human MDA-MB-231 cells assessed as increase in apoptotic cells after 24 hrs in presence of EGFR siRNA by Annexin-V-FITC/propidium iodide staining based FACS analysis; format: functional, cell-based
[10] = test system: MDA-MB-231; assay: Antitumor activity against human MDA-MB-231 cells xenografted in athymic BALB/c nude mouse assessed as decrease in tumor volume at 1.25 to 5 mg/kg, […] administered every two days for 28 days measured post-last dose by caliper method; format: functional, organism-based
[11] = test system: Mus musculus; assay: Down regulation of RAS expression in athymic BALB/c nude mouse xenografted with human MDA-MB-231 cells at 1.25 to 5 mg/kg, sc administered every two days for 28 days by Western blot analysis; format: functional, organism-based
[12] = test system: Mus musculus; assay: Down regulation of PI3K expression athymic BALB/c nude mouse xenografted with human MDA-MB-231 cells at 1.25 to 5 mg/kg, sc administered every two days for 28 days by Western blot analysis; format: functional, organism-based
[13] = test system: Mus musculus; assay: Down regulation of mTOR expression in athymic BALB/c nude mouse xenografted with human MDA-MB-231 cells at 1.25 to 5 mg/kg, sc administered every two days for 28 days by Western blot analysis; format: functional, organism-based
[14] = test system: Mus musculus; assay: Effect on RAF expression in athymic BALB/c nude mouse xenografted with human MDA-MB-231 cells at 1.25 to 5 mg/kg, sc administered every two days for 28 days by Western blot analysis; format: functional, organism-based
[15] = test system: Mus musculus; assay: Induction of ERK phosphorylation in athymic BALB/c nude mouse xenografted with human MDA-MB-231 cells at 1.25 to 5 mg/kg, sc administered every two days for 28 days by Western blot analysis; format: functional, organism-based
[16] = test system: Mus musculus; assay: Down regulation of AKT phosphorylation in athymic BALB/c nude mouse xenografted with human MDA-MB-231 cells at 1.25 to 5 mg/kg, sc administered every two days for 28 days by Western blot analysis; format: functional, organism-based
[17] = test system: Mus musculus; assay: Effect on MEK expression in athymic BALB/c nude mouse xenografted with human MDA-MB-231 cells at 1.25 to 5 mg/kg, sc administered every two days for 28 days by western blot analysis; format: functional, organism-based
[18] = test system: Mus musculus; assay: Effect on MEK phosphorylation in athymic BALB/c nude mouse xenografted with human MDA-MB-231 cells at 1.25 to 5 mg/kg, sc administered every two days for 28 days by western blot analysis; format: functional, organism-based
[19] = test system: Mus musculus; assay: Increase in ERK expression in athymic BALB/c nude mouse xenografted with human MDA-MB-231 cells at 1.25 to 5 mg/kg, sc administered every two days for 28 days by Western blot analysis; format: functional, organism-based

C[C@H]1[C@H](C)CC[C@]2(C(=O)O)CC[C@]3(COC(=O)/C=C/c4ccc(O)cc4)C(=CC[C@@H]4[C@@]5(C)CC[C@H](O)C(C)(C)[C@@H]5CC[C@]43C)[C@H]12
Activity [1]: Active
Activity [2]: Dose-dependent effect
Activity [3]: 42.03%
Activity [4]: Active
Activity [5]: Dose-dependent effect
inhibition [6]: Active
inhibition [7]: Dose-dependent effect
Activity [8]: inactive
Activity [9]: inactive
Activity [10]: Active
Activity [11]: Active
Activity [12]: Active
Activity [13]: Active
Activity [14]: inactive
Activity [15]: Active
Activity [16]: Active
Activity [17]: inactive
Activity [18]: inactive
Activity [19]: Active
